Assay results taken from patent US5128331A, “Method for lowering plasma lipid levels or blood pressure” (priority 1988, dated 1992).
Read-outs that look alike come from different tables or passages of the source.

Columns and labels:
mice of the OF1 strain = assay: Hypolipidemic activity: plasma cholesterol and plasma triglycerides in mice fed compound in chow; format: in vivo; details: for change in vivo at 180 mg/kg: Mus musculus, feed or water, 240 h
Method: With the goal of finding new drugs which might be hypolipidemic, the new diphosphonates described in this patent application were administered orally to mice. This rodent species has plasma lipid level relatively close to man (generally greater than 150 mg/dl). For example, in mice receiving a normal diet the plasma cholesterol and triglyceride levels are in the range of 100 mg/dl, whereas for rat the comparative values are close to 50 mg/dl.
In every screening experiment, 30 mice of the OF1 strain weighing 25 to 35 g were divided into 5 groups of 6 animals each. Four groups received the compounds to be tested, or the reference drugs, the fifth group served as control. Compounds were dissolved in diethyl ether, and solution was added to the pelleted food and the ether was evaporated.
All compounds were tested at the final concentration of 0.1% in animal chow, equivalent to a daily intake of about 180 mg/kg. This diet was fed for 10 days, then after an overnight fasting the animals were sacrified by decapitation under ether anesthesia. Blood samples were collected in EDTA containing tubes.
Plasma cholesterol and plasma triglycerides were measured by enzymatic methods (Ames kit No. 6376 and No. 6630).

[1] = test system: spontaneously hypertensive rat (SHR); assay: Oral hypotensive activity in spontaneously hypertensive rats (SHR); format: in vivo; details: 2 hours post dose, Table 5
Method: The spontaneously hypertensive rat (SHR) is a well established animal model of human arterial hypertension.
In screening experiments various gem-diphosphonates were dissolved in Tween-80 and administered orally to SH rats. Blood pressure was monitored hourly using a tailcuff method.

[2] = mice, 0.1% in animal chow (about 180 mg/kg daily), 10 days, Table 3, given as change from control, read-out: Cholesterol (% control)
[3] = mice, 0.1% in animal chow (about 180 mg/kg daily), 10 days, Table 3, given as change from control, read-out: Triglycerides (% control)
[4] = read-out: Cholesterol (% control)
[5] = read-out: Triglycerides (% control)

Row | Compound | hypocholesterolemic activity (in words) (mice of the OF1 strain; mice, 0.1% in chow, 10 days) | change in vivo at 180 mg/kg (mice of the OF1 strain; [4]) | change in vivo at 180 mg/kg (mice of the OF1 strain; [5]) | hypotriglyceridemia (in words) (mice of the OF1 strain; mice, 0.1% in chow, 10 days) | other results
1 | CCOC(=O)C(C)(C)Oc1ccc(Cl)cc1 [Clofibrate, reference compound] | less hypocholesterolemic than many of the diphosphonates tested |  |  |  | change in vivo at 180 mg/kg (mice of the OF1 strain; [2]): 4%; change in vivo at 180 mg/kg (mice of the OF1 strain; [3]): -5%
2 | CCOP(=O)(OCC)C(Cc1cc(C)c(O)c(C(C)(C)C)c1)P(=O)(OCC)OCC [Compound 1, Tetraethyl 2-(3-tertiarybutyl-4-hydroxy-5-methylphenyl)-ethylidene-1,1-diphosphonate] |  | -2% | -28% |  | 
3 | CCOP(=O)(OCC)C(Cc1cc(C(C)C)c(O)c(C(C)C)c1)P(=O)(OCC)OCC [Compound 2] |  | 6% | -17% |  | 
4 | CCOP(=O)(OCC)C(Cc1cc(C(C)CC)c(O)c(C(C)CC)c1)P(=O)(OCC)OCC (stereo not drawn) [Compound 3] | hypocholesterolemic | -19% | -46% | significant hypotriglyceridemia | decreased plasma triglycerides by (mice of the OF1 strain; mice, 0.1% in chow, 10 days): more than 44%; Percent change in blood pressure [1]: -20%
5 | CCOP(=O)(OCC)C(Sc1cc(C(C)(C)C)c(O)c(C(C)(C)C)c1)P(=O)(OCC)OCC [Compound 5, Tetraethyl 3,5-ditertiary-4-hydroxyphenylthio-methylenediphosphonate] | hypocholesterolemic | -22% | -24% | significant hypotriglyceridemia | 
6 | COP(=O)(OC)C(Cc1cc(C(C)(C)C)c(O)c(C(C)(C)C)c1)P(=O)(OC)OC [Compound 10, Tetramethyl 2-(3,5-ditertiarybutyl-4-hydroxyphenyl)-ethylidene-1,1-diphosphonate] |  | -5% | -19% |  | 
7 | CCOP(=O)(OCC)C(Cc1cc2c(cc1Cl)OCO2)P(=O)(OCC)OCC [Compound 13, Tetraethyl 2-(3,4-methylenedioxy-6-chlorophenyl)-ethylidene-1,1-diphosphonate] |  | -5% | 38% |  | 
8 | CCOP(=O)(OCC)C(Cc1cc(C(C)(C)C)c(O)c(C(C)(C)C)c1)P(=O)(N(C)C)N(C)C (stereo not drawn) [Compound 19, Diethyl 1-bis(dimethylamino)phosphinyl-2-(3,5-ditertiarybutyl-4-hydroxyphenyl)ethylphosphonate] |  | -6% | -44% |  | decreased plasma triglycerides by (mice of the OF1 strain; mice, 0.1% in chow, 10 days): more than 44%
9 | CCOP(=O)(OCC)C(CCCCCCSc1cc(C(C)(C)C)c(O)c(C(C)(C)C)c1)P(=O)(OCC)OCC [Compound 20, Tetraethyl 7-(3,5-ditertiarybutyl-4-hydroxyphenylthio)-heptylidene-1,1-diphosphonate] |  | 5% | 13% |  | 
10 | CCOP(=O)(OCC)C(CC)(Cc1cc(C(C)(C)C)c(O)c(C(C)(C)C)c1)P(=O)(OCC)OCC [Compound 21, Tetraethyl 1-(3,5-ditertiarybutyl-4-hydroxyphenyl)-butylidene-2,2-diphosphonate] | hypocholesterolemic | -16% | -28% | significant hypotriglyceridemia | 
11 | CC(C)OP(=O)(OC(C)C)C(Sc1cc(C(C)(C)C)c(O)c(C(C)(C)C)c1)P(=O)(OC(C)C)OC(C)C [Compound 22] | hypocholesterolemic | -21% | -37% | significant hypotriglyceridemia | 
12 | CCCOP(=O)(OCCC)C(Cc1cc(C(C)(C)C)c(O)c(C(C)(C)C)c1)P(=O)(OCCC)OCCC [Compound 23] | hypocholesterolemic | -15% | -33% | significant hypotriglyceridemia | 
13 | CC(C)(C)c1cc(CC(P2(=O)OCCCO2)P2(=O)OCCCO2)cc(C(C)(C)C)c1O [Compound 24] | hypocholesterolemic |  |  | significant hypotriglyceridemia | change in vivo at 180 mg/kg (mice of the OF1 strain; [2]): -20%; change in vivo at 180 mg/kg (mice of the OF1 strain; [3]): -71%; decreased plasma triglycerides by (mice of the OF1 strain; mice, 0.1% in chow, 10 days): more than 44%
14 | CCOP(=O)(OCC)C(=Cc1cc(C)c(O)c(C(C)(C)C)c1)P(=O)(OCC)OCC [Compound 30, Tetraethyl 2-(3-tertiarybutyl-4-hydroxy-5-methylphenyl)-ethenylidene-1,1-diphosphonate] |  | 2% | -45% | significant hypotriglyceridemia | decreased plasma triglycerides by (mice of the OF1 strain; mice, 0.1% in chow, 10 days): more than 44%
15 | CCOP(=O)(OCC)C(=Cc1cc(C(C)C)c(O)c(C(C)C)c1)P(=O)(OCC)OCC [Compound 31] |  | 4% | -11% | significant hypotriglyceridemia | 
16 | CCOP(=O)(OCC)C(=Cc1cc(C(C)CC)c(O)c(C(C)CC)c1)P(=O)(OCC)OCC (stereo not drawn) [Compound 32] |  | 8% | 9% |  | 
17 | CC(C)OP(=O)(OC(C)C)C(=Cc1cc(C(C)(C)C)c(O)c(C(C)(C)C)c1)P(=O)(OC(C)C)OC(C)C [Compound 34] | hypocholesterolemic |  |  |  | change in vivo at 180 mg/kg (mice of the OF1 strain; [2]): -41%; change in vivo at 180 mg/kg (mice of the OF1 strain; [3]): 11%; hypocholesterolemic potency (plasma cholesterol change) (mice of the OF1 strain; mice, 0.1% in chow, 10 days): -41%
18 | CCCCOP(=O)(OCCCC)C(=Cc1cc(C(C)(C)C)c(O)c(C(C)(C)C)c1)P(=O)(OCCCC)OCCCC [Compound 35] |  |  |  |  | change in vivo at 180 mg/kg (mice of the OF1 strain; [2]): 0%; change in vivo at 180 mg/kg (mice of the OF1 strain; [3]): 7%
19 | CCOP(=O)(OCC)C(=Cc1cc(OC)c(O)c(OC)c1)P(=O)(OCC)OCC [Compound 37] | hypocholesterolemic | -16% | -70% | significant hypotriglyceridemia | decreased plasma triglycerides by (mice of the OF1 strain; mice, 0.1% in chow, 10 days): more than 44%
20 | CCOP(=O)(OCC)C(=Cc1ccc2c(c1)OCO2)P(=O)(OCC)OCC [Compound 38, Tetraethyl 2(3,4-methylenedioxyphenyl)-ethenylidene-1,1-diphosphonate] |  | -5% | -6% |  | 
21 | CCOP(=O)(OCC)C(=Cc1ccc2c(c1)OCCO2)P(=O)(OCC)OCC [Compound 39] |  | 4% | 17% |  | 
22 | CCOP(=O)(OCC)C(=Cc1cc(C(C)(C)C)c(OC(C)=O)c(C(C)(C)C)c1)P(=O)(OCC)OCC [Compound 41, Tetraethyl 2-(3,5-ditertiarybutyl-4-acetoxyphenyl)-ethenylidene-1,1-diphosphonate] |  | -3% | 6% |  | 
23 | CCCCOP(=O)(OCCCC)C(=Cc1cc(C(C)(C)C)c(O)c(C(C)(C)C)c1)P(=O)(OCC)OCC [Compound 42, Dibutyl diethyl 2-(3,5-ditertiarybutyl-4-hydroxyphenyl)-ethenylidene-1,1-diphosphonate] |  | 12% | 1% |  | 
24 | CCOP(=O)(OCC)C(=CC=Cc1cc(C(C)(C)C)c(O)c(C(C)(C)C)c1)P(=O)(OCC)OCC [Compound 43, Tetraethyl 4-(3,5-ditertiarybutyl-4-hydroxyphenyl)-1,3-butadienylidene-1,1-diphosphonate] |  | -5% | -14% |  | 
25 | CCOP(=O)(OCC)C(=Cc1cc(C(C)(C)C)cc(C(C)(C)C)c1O)P(=O)(OCC)OCC [Compound 46] |  | 1% | -12% |  | 
26 | COP(=O)(OC)C(=Cc1cc(C(C)(C)C)c(O)c(C(C)(C)C)c1)P(=O)(OC)OC [Compound 47] | hypocholesterolemic | -31% | -45% | significant hypotriglyceridemia | decreased plasma triglycerides by (mice of the OF1 strain; mice, 0.1% in chow, 10 days): more than 44%
27 | CCCOP(=O)(OCCC)C(=Cc1cc(C(C)(C)C)c(O)c(C(C)(C)C)c1)P(=O)(OCCC)OCCC [Compound 48] | hypocholesterolemic |  |  | significant hypotriglyceridemia | change in vivo at 180 mg/kg (mice of the OF1 strain; [2]): -21%; change in vivo at 180 mg/kg (mice of the OF1 strain; [3]): -36%
28 | COc1ccc([C@@H]2Sc3ccccc3N(CCN(C)C)C(=O)[C@@H]2OC(C)=O)cc1 [Diltiazem, reference compound] |  |  |  |  | Percent change in blood pressure [1]: -38%
29 | CC(C)OC(=O)C(C)(C)Oc1ccc(C(=O)c2ccc(Cl)cc2)cc1 [Fenofibrate, reference compound] | less hypocholesterolemic than many of the diphosphonates tested |  |  |  | change in vivo at 180 mg/kg (mice of the OF1 strain; [2]): -15%; change in vivo at 180 mg/kg (mice of the OF1 strain; [3]): -2%; hypocholesterolemic potency (plasma cholesterol change) (mice of the OF1 strain; mice, 0.1% in chow, 10 days): -15%
30 | Cc1ccc(C)c(OCCCC(C)(C)C(=O)O)c1 [Gemfibrozil, reference compound] | less hypocholesterolemic than many of the diphosphonates tested |  |  |  | change in vivo at 180 mg/kg (mice of the OF1 strain; [2]): -7%; change in vivo at 180 mg/kg (mice of the OF1 strain; [3]): -35%; hypotriglyceridemic potency (plasma triglyceride change) (mice of the OF1 strain; mice, 0.1% in chow, 10 days): -35%
